Holding throughout (format): biochemical
One assay deals with T1, b-Raf Wild-Type (Homo sapiens, UniProt P15056).
T1 construct: recombinant human b-Raf residues 416-end; purchased Upstate 14-530M; host or cells: baculovirus, Sf21 insect cells
Briefly: b-Raf wild-type HTRF assay with 6H-MEK as substrate (dose response). The settings on record: recombinant human b-Raf wild-type residues 416-end, GST-tag. As for the experimental part:
(§1) Kinase Enzyme Inhibition Assay (IC50)
b-Raf Wild-Type HTRF Assay with 6H-MEK as Substrate (Dose Response)
The assay utilizes 6H-MEK as the substrate. Upon b-Raf WT phosphorylation, phosphorylated 6H-MEK is detected with rabbit anti-phospho-MEK1/2, Eu-labeled anti-rabbit, and APC-labeled anti-6H antibodies.
(§2) Reagents and Instruments:
Enzyme: recombinant human b-Raf residues 416-end with N-terminal GST-tag from Upstate; (expressed by baculovirus in Sf21 insect cells), 0.26 mg/mL (3.87 μM assuming a molecular weight of 67.2 kD) Cat. #14-530M, Lot #25502AU, stored at −80° C.
Substrate: WT full-length 6H-MEK from C. Belunis (5126104), 4.94 mg/mL (154.4 μM assuming a MW of 32 kD) stored at −15° C.
Antibodies: Rabbit (α-P-(Ser 217/221)-MEK-1/2 Ab (from Cell Signaling, Cat. #9121B, Lot 14); Eu-(α-rabbit IgG (from Wallac, Cat. #AD0083, Lot 318663, 710 ug/mL, 4.4 μM); (α-6H-SureLight-APC (from Martek, Cat. #AD0059H, Lot E012AB01, 3.03 μM).
(§3) Reader: Envision from PerkinElmer, HTRF reading mode with 412 mirror
(§4) Assay Plate Matrix all-black polypropylene plates (Cat. #4344)
(§5) Others: Weidman 384 polypropylene plates (REMP) for compound plate.
(§6) (1) Prepare Kinase Assay Buffer (KAB): 50 mM HEPES (HyClone) pH7, 10 mM MgCl2, 1 mM DTT, 0.1 mM […], and 0.3 mg/ml BSA.
(§7) (2) Prepare 6H-MEK (150 nM) in KAB. Add 12 μl/well to the assay plate.
(§8) (3) Prepare ATP (66 μM) in KAB.
(§9) (4) Dilute compounds to 2.4 mM and any positive controls to 480 μM in DMSO. Perform 10-point 3× dilution in DMSO. Withdraw 2.5 μl/well of DMSO solution and add to 27.5 μl/well ATP solution in (3).
(§10) (5) Mix, then add 6 μl/well of solution in (4) to the assay plate for a DMSO concentration of 2.1% during MEK phosphorylation.
(6) Prepare b-Raf WT ([…]) in KAB.
(7) Add 6 μl/well of KAB in columns 1-2 and 6 μl/well of b-Raf WT in columns 3-24.
(§11) (8) Incubate at 37° C. for 30 min.
(9) Prepare rabbit (α-P-(Ser 217/221)-MEK-1/2 Ab (1:200 from stock) in AB1: 50 mM HEPES pH7, 0.2 mg/ml BSA, and 43 mM EDTA.
(§12) (10) To stop reaction, add 6 μl/well of solution from (9) to the assay plate and incubate at 37° C. for 30 min.
(11) Prepare Eu-(α-rabbit IgG (9 nM) and (α-6H-SureLight-APC (180 nM) in AB2: 50 mM HEPES pH7 and 0.2 mg/ml BSA.
(§13) (12) Add 6 μl/well of solution from (11) to the assay plate.
(§14) (13) For determining the spectrum cross talk factor, prepare 2 samples following steps (1) to (10). For the blank sample, add 6 μl/well of AB2. For the cross talk factor sample, add 6 μl/well of Eu-anti rabbit IgG (9 nM).
(§15) (14) Incubate at room temperature for 1.5 hours.
(§16) (15) Read HTRF signals at 615 nm and 665 nm on the Envision. Normalize HTRF signals after spectrum cross-talk correction.

For the next assay, the target named is T2, c-Raf (Homo sapiens, UniProt P04049).
T2 construct: made in house; host or cells: baculovirus, High-5 (Hi5) insect cells, co-infected with FLAG-vSrc virus
T2 sequence (P04049 whole entry): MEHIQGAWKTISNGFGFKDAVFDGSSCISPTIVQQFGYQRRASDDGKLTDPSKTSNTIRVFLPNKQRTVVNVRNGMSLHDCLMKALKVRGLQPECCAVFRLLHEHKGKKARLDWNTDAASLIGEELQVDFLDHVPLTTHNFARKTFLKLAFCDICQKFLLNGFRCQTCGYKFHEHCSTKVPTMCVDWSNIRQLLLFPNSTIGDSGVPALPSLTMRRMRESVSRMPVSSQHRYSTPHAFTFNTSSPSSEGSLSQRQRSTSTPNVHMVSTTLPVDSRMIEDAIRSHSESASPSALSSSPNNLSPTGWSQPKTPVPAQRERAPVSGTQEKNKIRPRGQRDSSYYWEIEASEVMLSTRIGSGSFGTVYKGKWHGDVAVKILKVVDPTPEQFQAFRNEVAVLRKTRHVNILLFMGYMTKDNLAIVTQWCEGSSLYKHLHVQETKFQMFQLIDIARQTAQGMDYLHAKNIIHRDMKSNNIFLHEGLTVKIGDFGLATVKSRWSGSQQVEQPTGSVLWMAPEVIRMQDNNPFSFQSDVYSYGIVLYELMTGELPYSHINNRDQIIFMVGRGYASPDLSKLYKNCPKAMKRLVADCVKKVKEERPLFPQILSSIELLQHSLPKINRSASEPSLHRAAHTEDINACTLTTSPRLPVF
Briefly: c-Raf HTRF assay with 6H-MEK as substrate (dose response). The settings on record: cloned human c-Raf with EE-tag. As for the experimental part:
as §1
c-Raf HTRF Assay with 6H-MEK as Substrate (Dose Response)
The assay utilizes 6H-MEK as the substrate. Upon c-Raf phosphorylation, phosphorylated 6H-MEK is detected with rabbit anti-phospho-MEK1/2, Eu-labeled anti-rabbit, and APC-labeled anti-6H antibodies.
as §2
Enzyme: cloned human c-Raf with EE-tag; phosphorylated (co-expressed with v-src-FLAG in baculovirus Hi5 cells), 0.2 mg/mL (2.74 μM assuming a molecular weight of 73 kD) stored at −15° C.
Substrate: WT full-length 6H-MEK, 4.94 mg/mL (154.4 μM assuming a MW of 32 kD) stored at −15° C.
(§17) Antibodies: Rabbit (α-P-(Ser 217/221)-MEK-1/2 Ab (from Cell Signaling, Cat. #9121B, Lot 14); Eu-(α-rabbit IgG (from Wallac, Cat. # AD0083, Lot 318663, 710 ug/mL, 4.4 μM); (α-6H-SureLight-APC (from Martek, Cat. #AD0059H, Lot E012AB01, 3.03 μM).
as §3, §4, §5, §6, §7, §8, §9, §10
(6) Prepare c-Raf (12 nM) in KAB.
(7) Add 6 μl/well of KAB in columns 1-2 and 6 μl/well of c-Raf in columns 3-24.
as §11
(9) Prepare rabbit (α-P-(Ser 217/221)-MEK-1/2 Ab (1:240 from stock) in AB1: 50 mM HEPES pH7, 0.2 mg/ml BSA, and 43 mM EDTA.
as §12
(11) Prepare Eu-(α-rabbit IgG (9 nM) and (α-6H-SureLight-APC (120 nM) in AB2: 50 mM HEPES pH7 and 0.2 mg/ml BSA.
as §13, §14, §15, §16
Expression and Purification of c-Raf
N terminal EE-tagged c-Raf was expressed in High-5 cells. A five liter culture was co-transfected with virus for EE-c-Raf and FLAG-vSrc at a ratio of 1:2 and harvested after 48 hours. The cell pellet was lysed in TBS containing 5 mM EDTA, 50 mM KF, 20 mM Na pyrophosphate, 20 mM β-glycerolphsphate, 0.5 mM Na VO3, 1% NP-40 (w/v) and Complete Protease Tablets. The lysate was centrifuged at 20,000×g for 1 hour. The supernatant was incubated with 8 ml of anti-EE tag-Protein G Sepharose for 2 hours at 4° C. The resin was then washed with 30 volumes of the above buffer. The c-Raf protein was eluted by incubation with the above buffer containing 100 mg/ml of EE peptide for 1 hour at 4° C. Protein was concentrated using an Amicon Stir Cell with an YM10 membrane. The concentrated protein was dialyzed against TBS containing 1 mM DTT and 30% Glycerol. Protein concentration was determined by the BioRad DC method.
E. coli cells containing the plasmid for the expression of 6H-MEK1 (62-393) were grown in Rich Media and induced with 1 mM IPTG for 24 hours at 22° C. The cell pellet was resuspent in 50 mM potassium phosphate buffer, pH 8.0, 300 mM NaCl, 5 mM MgCl2, 10 mM CHAPS, 2 mM TCEP, and Complete Protease Inhibitor Tablets. Cells were disrupted by sonication. The lysate was cleared by centrifugation at 13,000×g for 45 minutes. […]
A general note: In TR-FRET formats the signal depends on donor and acceptor labels being close together.

The target in the next assay is T3, b-Raf V600E Mutant (Homo sapiens, UniProt P15056, V600E).
T3 construct: recombinant human b-Raf residues 416-end containing a V600E mutation; purchased Upstate 14-5M; host or cells: baculovirus, Sf21 insect cells
T3 sequence (P15056 416-766 V600E): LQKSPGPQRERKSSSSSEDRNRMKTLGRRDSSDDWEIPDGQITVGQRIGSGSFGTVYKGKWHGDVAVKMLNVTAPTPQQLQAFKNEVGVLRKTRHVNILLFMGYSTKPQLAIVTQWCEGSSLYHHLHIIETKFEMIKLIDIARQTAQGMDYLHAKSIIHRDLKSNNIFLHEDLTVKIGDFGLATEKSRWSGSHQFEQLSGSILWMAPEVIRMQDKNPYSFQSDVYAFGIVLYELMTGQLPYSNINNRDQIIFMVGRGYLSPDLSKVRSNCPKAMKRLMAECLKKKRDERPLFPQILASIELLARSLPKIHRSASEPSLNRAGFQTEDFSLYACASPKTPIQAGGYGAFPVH
Briefly: b-Raf V600E mutant HTRF assay with 6H-MEK as substrate (dose response). As to conditions: recombinant human b-Raf residues 416-end with V600E mutation, GST-tag.
Text: as §1
b-Raf V600E Mutant HTRF Assay with 6H-MEK as Substrate (Dose Response)
The assay utilizes 6H-MEK as the substrate. Upon b-Raf V600E phosphorylation, phosphorylated 6H-MEK is detected with rabbit anti-phospho-MEK1/2, Eu-labeled anti-rabbit, and APC-labeled anti-6H antibodies.
as §2
Enzyme: recombinant human b-Raf residues 416-end containing a V600E mutation with N-terminal GST-tag from Upstate; (expressed by baculovirus in Sf21 insect cells), 0.26 mg/mL ([…] assuming a molecular weight of 67.3 kD) Cat. #14-5M, Lot #25633AU, stored at −80° C.
Substrate: WT full-length 6H-MEK from C. Belunis (May 26, 2004), 4.94 mg/mL (154.4 μM assuming a MW of 32 kD) stored at −15° C.
as §17, §3, §4, §5, §6, §7, §8
(4) Dilute compounds to 2.4 mM and positive controls to 480 μM in DMSO. Perform 10-point 3× dilution in DMSO. Withdraw 2.5 μl/well of DMSO solution and add to 27.5 μl/well ATP solution in (3).
as §10
(6) Prepare b-Raf V600E ([…]) in KAB.
(7) Add 6 μl/well of KAB in columns 1-2 and 6 μl/well of b-Raf V600E in columns 3-24.
as §11
(9) Prepare rabbit α-P-(Ser 217/221)-MEK-1/2 Ab (1:200 from stock) in AB1: 50 mM HEPES pH7, 0.2 mg/ml BSA, and 43 mM EDTA.
as §12
(11) Prepare Eu-α-rabbit IgG (9 nM) and α-6H-SureLight-APC (180 nM) in AB2: 50 mM HEPES pH7 and 0.2 mg/ml BSA.
as §13, §14, §15, §16

Structures can show the parent of a compound that is named as a salt.

T1 sequence (P15056 416-766 limits assumed): as the sequence (P15056 416-766 V600E) above, with E185V counted along it

A word on the IC50: it is the concentration needed to halve the response being measured. For `Cc1nnc(-c2cccc(OCc3csc4c(C(=O)NCCO)cnc(N)c34)c2)o1` [Example 10, 4-Amino-3-[3-(5-methyl-[1,3,4]oxadiazol-2-yl)-phenoxymethyl]-thieno[3,2-c]pyridine-7-carboxylic acid (2-hydroxy-ethyl)-amide], the IC50 at b-Raf Wild-Type worked out at 1300 nM; at c-Raf, 768 nM; at b-Raf V600E Mutant, 327 nM.

Turning to `Cc1ccc(-c2nnc(-c3ccc(Cl)cc3)o2)cc1OCc1csc2c(C(=O)NCCO)cnc(N)c12` [Example 49, 4-Amino-3-{5-[5-(4-chloro-phenyl)-[1,3,4]oxadiazol-2-yl]-2-methyl-phenoxy-methyl}-thieno[3,2-c]pyridine-7-carboxylic acid (2-hydroxy-ethyl)-amide trifluoroacetic acid salt], the values for the IC50 at b-Raf Wild-Type, against c-Raf and at b-Raf V600E Mutant were 5140 nM, 17 nM and 920 nM, respectively.

For the compound `Cn1nnc(-c2cccc(OCc3csc4c(C(=O)NCCO)cnc(N)c34)c2)n1` [Example 33, 4-Amino-3-[3-(2-methyl-2H-tetrazol-5-yl)-phenoxymethyl]-thieno[3,2-c]pyridine-7-carboxylic acid (2-hydroxy-ethyl)-amide], the IC50 at b-Raf Wild-Type was 1680 nM; at c-Raf, 341 nM; at b-Raf V600E Mutant, 258 nM.

Consider `Cc1ccc(-c2cn(C)nn2)cc1OCc1csc2c(C(=O)NCCO)cnc(N)c12` [Example 24, 4-Amino-3-[2-methyl-5-(1-methyl-1H-[1,2,3]triazol-4-yl)-phenoxymethyl]-thieno[3,2-c]pyridine-7-carboxylic acid (2-hydroxy-ethyl)-amide], for which the IC50 was 45 nM at b-Raf Wild-Type, 11.9 nM against c-Raf and more than 50000 nM at b-Raf V600E Mutant.

With `COc1ccc(Cn2nnc(-c3cccc(OCc4csc5c(C(=O)NCCO)cnc(N)c45)c3)n2)cc1` [Example 29, 4-Amino-3-{3-[2-(4-methoxy-benzyl)-2H-tetrazol-5-yl]-phenoxymethyl}-thieno[3,2-c]pyridine-7-carboxylic acid (2-hydroxy-ethyl)-amide], the IC50 on b-Raf Wild-Type was 544 nM; at c-Raf, 231 nM; at b-Raf V600E Mutant, 94 nM.

`CCOC(=O)c1cnc(N)c2c(COc3cccc(-c4nnc(C)o4)c3)csc12` [Example 9, 4-Amino-3-[3-(5-methyl-[1,3,4]oxadiazol-2-yl)-phenoxymethyl]-thieno[3,2-c]pyridine-7-carboxylic acid ethyl ester]: the IC50 at b-Raf Wild-Type was found to be 12700 nM; against c-Raf, 5420 nM; on b-Raf V600E Mutant, 997 nM.

For the compound `Cc1nnc(-c2ccc(C)c(OCc3csc4c(C(=O)NCCO)cnc(N)c34)c2)o1` [Example 14, 4-Amino-3-[2-methyl-5-(5-methyl-[1,3,4]oxadiazol-2-yl)-phenoxymethyl]-thieno[3,2-c]pyridine-7-carboxylic acid (2-hydroxy-ethyl)-amide trifluoro-acetic acid salt], the 50% inhibitory concentration (IC50) at b-Raf Wild-Type stood at 117 nM; against c-Raf, 41 nM; on b-Raf V600E Mutant, 17 nM.

Values taken from US7932390B2, “Substituted thieno[3,2-C]pyridine carboxylic acid derivatives” (Hoffman-La Roche Inc., priority 2006, dated 2011).
